According to publication PMC12670396, “Crizotinib- or Ceritinib-Conjugated Platinum(IV) Prodrugs As Potent Multiaction Agents Inducing Antiproliferative Effects in 2D and 3D Cancer Cell Models” (Journal of Medicinal Chemistry, 2025):
Like-named read-outs stand apart in the source and are kept apart here.

Assays:
[1] = tested on: A549; experiment: MTT cytotoxic/antiproliferative activity, 72 h; assay type: cell-based, human; details: A549, MTT, 72 h
[2] = tested on: NCI-H2228; experiment: MTT cytotoxic/antiproliferative activity, 72 h; assay type: cell-based, human; details: NCI-H2228, MTT, 72 h
[3] = tested on: HCT116; experiment: MTT cytotoxic/antiproliferative activity, 72 h; assay type: cell-based, human; details: HCT116, MTT, 72 h
[4] = tested on: RD; experiment: MTT cytotoxic/antiproliferative activity, 72 h; assay type: cell-based, human; details: MTT, 72 h
[5] = tested on: MDA-MB-231; experiment: MTT cytotoxic/antiproliferative activity, 72 h; assay type: cell-based, human; details: MDA-MB-231, MTT, 72 h
[6] = tested on: U87-MG; experiment: MTT cytotoxic/antiproliferative activity, 72 h; assay type: cell-based, human; details: MTT, 72 h
Procedure: (§1) A panel of six cancer cell lines was used to evaluate the cytotoxic potential of the investigated compounds.
(§2) Cytotoxicity in hepatocyte-like cells (HLC). STEMdiff Hepatocyte Kit was used to generate HLC from human pluripotent stem cells. Cytotoxicity of several of the tested compounds in HLC was evaluated using the sulphorhodamine B assay.

[7] = tested on: IMR-90; experiment: MTT cytotoxicity in noncancerous cells, 72 h; assay type: cell-based, human; details: IMR-90, MTT
Procedure: (§3) Growth inhibition activity in cancer cell lines was compared with the activity to inhibit the proliferation of normal (noncancerous) cells, namely MRC-5, IMR-90, hTERT-HPNE, and MCF10A cells. Selectivity indexes (SI) were calculated as (IC50 in noncancerous cells)/(average IC50 in cancer cells). […] We further assessed the toxicity of several of the compounds in hepatocyte-like cells (HLC) generated from human pluripotent cells.
as §2

[8] = tested on: MCF10A; experiment: MTT cytotoxicity in noncancerous cells, 72 h; assay type: cell-based, human
Procedure: as §3, §2

[9] = tested on: MRC-5; experiment: MTT cytotoxicity in noncancerous cells, 72 h; assay type: cell-based, human
Procedure: as §3, §2

[10] = tested on: hTERT-HPNE; experiment: MTT cytotoxicity in noncancerous cells, 72 h; assay type: cell-based, human
Procedure: as §3, §2

[11] = tested on: CHOK1; experiment: MTT cytotoxicity in NER-proficient cells, 72 h; assay type: cell-based, Chinese hamster
Description: (§4) The cytotoxicity assay was also employed to determine whether DNA damage might be involved in the mechanism of action of the tested compounds. The Chinese hamster ovary MMC2 cell line harbors the ERCC3/XPB mutation, which renders it deficient in nucleotide excision repair (NER), whereas the parent line CHOK1 is proficient in this repair process. Thus, the MMC2 line is often more sensitive to agents causing DNA damage, especially NER-reparable DNA damage, than CHOK1. […] Phosphorylation of H2AX is a commonly used marker of DNA damage.
as §2

[12] = tested on: MMC2; experiment: MTT cytotoxicity in NER-deficient cells, 72 h; assay type: cell-based, Chinese hamster; details: for IC50: MMC2 (NER deficient), MTT, 72 h; for Index F: IC50(CHOK1)/IC50(MMC2)
Description: as §4, with “damage. […]” for “damage.”

[13] = tested on: panel of six cancer cell lines; experiment: MTT, panel of six cancer cell lines (average, ranges); assay type: cell-based, human; details: average over six cancer cell lines, read-out: av cancer (average IC50 in cancer cells)
Procedure: as §1, §2

[14] = tested on: normal (noncancerous) cells MRC-5, IMR-90, hTERT-HPNE, MCF10A; experiment: MTT, noncancerous cell lines (average, selectivity index); assay type: cell-based, human; details: for IC50: average over MRC-5, IMR-90, hTERT-HPNE, MCF10A, read-out: av norm (average IC50 in noncancerous cells); for SI, selectivity index: IC50(normal cells)/averageIC50(cancer cells)
Procedure: as §3, with “pluripotent cells. […]” for “pluripotent cells.”

[15] = Cytotoxicity in hepatocyte-like cells, sulphorhodamine B assay; assay type: cell-based; details: hepatocyte-like cells from human pluripotent cells
Procedure: as §3, §2

[16] = tested on: A549 spheroids; experiment: Cytotoxicity in 3D spheroids, CellTiter-Glo 3D; assay type: cell-based, human; details: Homo sapiens, A549 3D spheroids, 96 h
Procedure: (§5) In the 3D structure, the gradients of gases, nutrients, and therapeutics play a role in the final cytotoxicity of a compound.
(§6) A549 and NCI-H2228 cells were seeded in ultralow attachment, U-shape plates (Corning) at a density of 800 cells/well in the tumorsphere medium consisting of DMEM/F12 medium (Sigma), fibroblast growth factor (20 ng/mL; Sigma), epidermal growth factor 2 (10 ng mL^–1; Sigma), B27 supplement (1×; Gibco), bovine serum albumin, bovine serum albumin (BSA) (1.5 mg mL^–1; Sigma). […] CellTiter-Glo 3D viability assay was used for the experiment evaluation following the manufacturer’s instructions. The bioluminescence signal, proportional to the number of living cells, was measured using the luminescence reader SPARK, and IC50 values were calculated.

[17] = tested on: NCI-H2228 spheroids; experiment: Cytotoxicity in 3D spheroids, CellTiter-Glo 3D; assay type: cell-based, human; details: Homo sapiens, NCI-H2228 3D spheroids, 96 h
Procedure: as §5, §6

[18] = tested on: CT26 cell line; experiment: MTT cytotoxic/antiproliferative activity, 72 h; assay type: cell-based, murine; details: Mus musculus
[19] = Stability in RPMI cell culture medium with serum (HPLC); details: for intact Pt(IV) prodrug still present: after 3 days in the media
Procedure: Two conditions must be met for Pt(IV) complexes to serve as true prodrugs: they must remain stable in biological fluids and should be activated by reduction within the cancer cells to release the bioactive components in their active form, thereby facilitating the rapid onset of cytotoxic effects. […] The reduction in the area of the HPLC peak of the compounds was monitored as a function of time, and their half-lives were calculated (Table and Figures S26,S27).
The stock solutions were prepared by dissolving the compounds in a 1:9 (v/v) mixture of DMSO and RPMI media. After preparation, the samples were injected and stored at 37 °C throughout the experiment. The final concentration of the complexes used for the experiment is 50–60 μM.

[20] = Reduction by L-ascorbic acid in phosphate buffer (RP-HPLC); assay type: physicochemical; details: 10 equiv L-ascorbic acid, 10% DMSO in 100 mM phosphate buffer pH 7.4, 37 °C
Procedure: The reduction of Pt(IV) complexes was performed by reacting with 10 equiv of L-ascorbic acid in 10% DMSO in 100 mM phosphate buffer (pH 7.4) at 37 °C, and was monitored by reverse-phase analytical HPLC. The half-lives for the reduction were calculated from the decreasing peak areas as a function of time.
The reduction of the Pt(IV) complexes was performed in the presence of 10 equiv of L-ascorbic acid (AA) in phosphate buffer (100 mM, pH 7.4) at 37 °C using reverse-phase analytical HPLC. […] The platinum complexes were dissolved in 10% DMSO with 50% MeOH and added to 100 mM phosphate buffer (pH 7.4). […] The samples were injected and stored at 37 °C throughout the experiment.

[21] = 10% DMSO in RPMI cell culture medium containing serum, 37 °C, HPLC

Row | stability half-life (t 1/2) ([19]; serum) [h] | reduction half-life (t 1/2) [20] [h] | IC50 [13] [µM] | intact Pt(IV) prodrug still present ([19]; 37 °C) | stability half-life (t 1/2) [19, 21] [h] | Compound | IC50 [1] [µM] | IC50 [2] [µM] | IC50 [3] [µM] | IC50 [4] [µM] | IC50 [5] [µM] | IC50 [6] [µM] | IC50 [7] [µM] | IC50 [8] [µM] | IC50 ([9]; MRC-5, MTT) [µM] | IC50 [10] [µM] | IC50 [11] [µM] | Index F [12] | IC50 [12] [µM] | SI, selectivity index [14] | IC50 [14] [µM] | other results
1 | – | – | – | – | – | O=C1[O][Pt]2([NH][C@@H]3CCCC[C@H]3[NH]2)[O]C1=O [OxPt, oxaliplatin, reference compound] | 1.6 ± 0.6 | 3.8 ± 0.4 | 1.3 ± 0.1 | 4.3 ± 0.5 | 6.2 ± 0.9 | – | – | – | – | – | – | – | – | – | – | –
2 | – | – | – | – | – | C[C@@H](Oc1cc(-c2cnn(C3CCNCC3)c2)cnc1N)c1c(Cl)ccc(F)c1Cl [compound 1, crizotinib] | – | – | – | – | – | – | – | – | – | – | – | – | – | – | – | IC50 ([1]; Homo sapiens): 1 ± 0.2 µM; IC50 ([2]; Homo sapiens): 0.82 ± 0.07 µM; IC50 ([6]; Homo sapiens, U-87 MG): 3.9 ± 0.5 µM; IC50 ([3]; Homo sapiens, HCT-116): 1.9 ± 0.5 µM; IC50 ([4]; Homo sapiens): 1.4 ± 0.4 µM; IC50 ([5]; Homo sapiens): 1.2 ± 0.3 µM; IC50 ([7]; Homo sapiens): 7.6 ± 0.9 µM; IC50 ([8]; Homo sapiens, MCF-10A): 6.4 ± 0.7 µM; IC50 ([9]; Homo sapiens, MRC5, MRC-5, MTT): 4.3 ± 0.3 µM; IC50 ([10]; Homo sapiens): 6.9 ± 0.8 µM; IC50 ([11]; Cricetulus griseus, CHO-K1): 1.3 ± 0.5 µM; IC50 ([12]; Cricetulus griseus): 1.4 ± 0.3 µM; IC50 ([13]; Homo sapiens): 1.7 µM; IC50 ([14]; Homo sapiens): 6.3 µM; IC50 [15]: 9 ± 3 µM; IC50 [16]: 3 ± 1 µM; IC50 [17]: 1.5 ± 0.3 µM; IC50 [18]: 1.8 ± 0.4 µM
3 | 75 | 2.7 | 1.6 | – | – | CC(Oc1cc(-c2cnn(C3CCN(C(=O)[O][Pt]([OH])([Cl])[Cl])CC3)c2)cnc1N)c1c(Cl)ccc(F)c1Cl.N.N (stereo not drawn) [compound 2, ctc-[Pt(NH3)2(crizotinib)(OH)Cl2]] | 0.8 ± 0.1 | 0.74 ± 0.08 | 2.1 ± 0.5 | 2 ± 0.4 | 1.9 ± 0.6 | 2 ± 0.7 | 7.4 ± 0.7 | 5.1 ± 0.6 | 4.2 ± 0.9 | 5.2 ± 0.6 | 1.5 ± 0.6 | 1.95 | 0.77 ± 0.09 | 3.4 | 5.5 | –
4 | >75 | 11.5 | 1.5 | more than 80% | – | C[C@@H](Oc1cc(-c2cnn(C3CCN(C(=O)[O][Pt]4([O]C(=O)CCCc5ccccc5)[O]C(=O)C(=O)[O]4)CC3)c2)cnc1N)c1c(Cl)ccc(F)c1Cl.N[C@@H]1CCCC[C@H]1N [compound 4, ctc-[Pt(DACH)(crizotinib)(PhB)(Ox)]] | 1.5 ± 0.4 | 1.3 ± 0.4 | 1 ± 0.2 | 1.6 ± 0.2 | 1.5 ± 0.5 | 1.8 ± 0.4 | 2.9 ± 0.4 | 2.4 ± 0.5 | 3.1 ± 0.9 | 3.2 ± 0.6 | 1.4 ± 0.4 | 1.08 | 1.3 ± 0.4 | 1.9 | 2.9 | –
5 | – | 2.2 | 0.63 | – | 48 | Cc1cc(Nc2ncc(Cl)c(Nc3ccccc3S(=O)(=O)C(C)C)n2)c(OC(C)C)cc1C1CCN(C(=O)[O][Pt]([OH])([Cl])[Cl])CC1.N.N [compound 6, ctc-[Pt(NH3)2(ceritinib)(OH)Cl2]] | 0.35 ± 0.06 | 0.21 ± 0.06 | 0.7 ± 0.3 | 0.6 ± 0.2 | 1.1 ± 0.3 | 0.8 ± 0.2 | 4.1 ± 0.9 | 2.6 ± 0.2 | 2.6 ± 0.9 | 2.7 ± 0.5 | 1.1 ± 0.2 | 3.79(*) | 0.29 ± 0.09 | 4.8 | 3 | –
6 | – | 12.5 | 1.3 | > 65% | >75 | Cc1cc(Nc2ncc(Cl)c(Nc3ccccc3S(=O)(=O)C(C)C)n2)c(OC(C)C)cc1C1CCN(C(=O)[O][Pt]2([O]C(=O)CCCc3ccccc3)[O]C(=O)C(=O)[O]2)CC1.N[C@@H]1CCCC[C@H]1N [compound 8, ctc-[Pt(DACH)(ceritinib)(PhB)(Ox)]] | 1.3 ± 0.2 | 0.8 ± 0.3 | 0.88 ± 0.06 | 2.2 ± 0.4 | 1.5 ± 0.4 | – | 5 ± 0.6 | 2.9 ± 0.4 | 2.3 ± 0.6 | 3.1 ± 0.6 | 1.1 ± 0.2 | 1.22 | 0.9 ± 0.2 | 2.5 | 3.3 | –
